The subject of one assay is PancO2 tumors. The experiment in a line: In vivo efficacy in PancO2 pancreatic cancer syngeneic model. Details: species or system C57/B16 mice. Conditions: PancO2, 100 mg/kg BID oral. Here is the method: In vivo efficacy studies of the Compounds of the present invention were performed on PancO2 syngeneic tumor model of C57/B16 mice implanted subcutaneously. Five millions PancO2 pancreas cancer cells were implanted subcutaneously to 7 weeks old C57/B16 mice (day 0). Animals were randomized based on tumor size when tumor average reached 60 mm^3 (between day 10 and 12) into different treatment cohorts. The Compound was administered orally twice per day (approximately at 9 am and 5 pm) starting the day of randomization. The Compound was suspended into Methocel vehicle and sonicated before oral administration to animals using gavage needles. Treatment was administered daily until the end of the study. All experimental animals were monitored for body weight changes weekly. Tumor volume was measured weekly using a caliper device and calculated with the following formula: Tumor volume=0.5×(length×width^2). Studies were terminated before tumor volumes reached 2000 mm. TGI (% tumor growth inhibition) was determined as
Treatment was administered daily until the end of the study. Tumor volume was measured weekly using a caliper device and calculated with the following formula: Tumor volume=0.5×(length×width^2). Mice were considered as dead when tumor size reached 400 mm^3. […] SEM refers to standard error of measurement.

A further assay deals with Kynurenine. The experiment in a line: In-vivo inhibition of blood kynurenine levels in healthy mice. Conditions: two hours. Details: species or system mouse. Here is the method: The compounds of the present invention reduce the amount of Kynurenine in healthy mouse blood.
Briefly, mice were treated with either a suspension of one of the compounds of the present invention in 0.5% hydroxypropyl methylcellulose (HPMC) K4M/0.25% Tween 20 at different doses, or with a vehicle control (0.5% HPMC K4M/0.25% Tween 20), by the oral route by gavage (dosing volume 5 mL/kg, 10 mice per group). After two hours, blood was harvested, plasma was prepared and the amount of Kynurenine present was determined by LC-MS-MS (HPLC column Unison UK-Phenyl, 75×4.6, 3 μm, flow rate 0.8 mL/min, 4 minutes gradient from water+0.2% acetic acid to methanol+0.1% formic acid, retention time 2.7 min; API4000™ MS-MS system from AB Sciex, ESI+ mode, parent ion 209.2, daughter ion 94.1).

Assay [1] deals with T1, hIDO1 (Homo sapiens (Human), UniProt P14902). The experiment in a line: Assay for IDO1 enzymatic activity determination. The format is biochemical. To be noted: human recombinant IDO1 enzyme, L-Trp 100 μM.
T1 sequence (P14902 whole entry): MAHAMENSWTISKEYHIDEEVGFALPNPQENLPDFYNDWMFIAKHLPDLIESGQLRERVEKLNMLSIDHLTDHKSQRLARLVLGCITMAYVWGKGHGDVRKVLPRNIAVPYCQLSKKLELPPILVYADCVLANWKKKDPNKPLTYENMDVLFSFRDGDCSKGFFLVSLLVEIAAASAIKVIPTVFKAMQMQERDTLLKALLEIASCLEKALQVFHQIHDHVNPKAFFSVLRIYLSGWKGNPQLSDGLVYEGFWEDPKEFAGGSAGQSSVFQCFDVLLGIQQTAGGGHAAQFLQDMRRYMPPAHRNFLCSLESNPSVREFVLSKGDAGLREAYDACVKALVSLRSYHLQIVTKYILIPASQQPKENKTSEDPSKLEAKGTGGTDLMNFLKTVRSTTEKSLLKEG
Description: To measure enzymatic activity of human IDO1, the reaction mixture contained (final concentrations) potassium phosphate buffer (50 mM, pH 6.5), ascorbic acid (10 mM), methylene blue (5 μM) and human recombinant IDO1 enzyme (prepared as described in Rohrig et al. J Med Chem, 2012, 55, 5270-5290; final concentration 5 μg/mL) without or with the compounds of the present invention at the indicated concentrations (total volume 112.5 μL). The reaction was initiated by the addition of 37.5 μL of L-Trp (final concentration 100 μM) at room temperature. The reaction was conducted at room temperature during 15 minutes and stopped by the addition of 30 μL of 30% (w/v) trichloroacetic acid.
To convert N-formylkynurenine into kynurenine, the reaction mixture was incubated at 65° C. for 30 min. Then 120 μL of 2.5% (w/v) 4-(dimethylamino)-benzaldehyde in acetic acid were added and the mixture incubated for 5 min at room temperature. Kynurenine concentrations were determined by measuring the absorbance at 480 nm. A standard curve was made with pure kynurenine. The IDO1 activity was measured as described above using ten serial concentrations of the compounds of the present invention. Data were fitted using the Prism software (GraphPad Software, Inc.).
In assay [2] the target is T1, hIDO1. The experiment in a line: Cellular assay for IDO activity determination: hIDO1 P815 cells. The format is cell-based. Conditions: P815 cells overexpressing hIDO1, 24 hours. Here is the method:
To determine IDO1 activity, the cells were incubated 24 hours at 37° C. at 5% CO2 in IMDM (Invitrogen) supplemented with 2% FBS and 2% penicillin/streptomycin in the presence of the compounds of the present invention, at different concentrations.
The plates were then centrifuged 5 min at 1000 rpm, and 100 μL of the supernatant were collected in a conical plate, 30 uL of TCA 30% were added and a further centrifugated at 3000×g for 10 minutes. 100 μL of the supernatant were collected in a flat bottomed plate and 100 μL of 2% (w/v) 4-(dimethylamino)-benzaldehyde in acetic acid and incubated for 5 min at room temperature. […] A standard curve was made with pure kynurenine.

Assay [3] has as its target T1, hIDO1. The experiment in a line: Cellular assay for IDO1 activity determination: HeLa cells. Conditions: HeLa cells stimulated with IFNγ. Type of assay: cell-based. Here is the method:
The assay was performed in 96-well flat bottom plates seeded with the human cervical cancer HeLa cell line with stimulation with IFN.
To adhere HeLa cells (concentration of 5×10^3 cells/well) were incubated overnight at 37° C. at 5% CO2 in EMEM (Lonza) supplemented with 10% FBS, 2% penicillin/streptomycin and 2 mM Ultraglutamin, in a final volume of 200 μL.
To stimulate the expression of IDO1, cells were then incubated two days at 37° C. at 5% CO2 in EMEM (Lonza) supplemented with 2% FBS, 2% penicillin/streptomycin and 2 mM Ultraglutamine and 100 ng/mL IFNγ (R&D).
To determine IDO1 activity, medium was removed then the cells were incubated one day at 37° C. at 5% CO2 in EMEM (Lonza) supplemented with 2% FBS and 2% penicillin/streptomycin in the presence of the compounds of the present invention, at different concentrations. Then 100 μL of the supernatant were collected in a conical plate, 30 uL of TCA 30% were added and a centrifugation was made at 3000×g for 10 minutes. 100 μL of the supernatant were collected in a flat bottom plate and 100 μL of 2% (w/v) 4-(dimethylamino)-benzaldehyde in acetic acid and incubated for 5 min at room temperature. […] A standard curve was made with pure kynurenine.

`O=C1C[C@H](c2c[nH]c3ccc(F)cc23)C(=O)N1` [Compound 2, (−)-(R)-3-(5-fluoro-1H-indol-3-yl)pyrrolidine-2,5-dione]: the “Mean tumor volume +/− SEM on day 55” value in the assay on PancO2 tumors is 586.6 +/− 48.4 mm^3. In the assay on PancO2 tumors (day 55), the “TGI +/− SEM (Tumor growth inhibition)” value was 16.8% +/− 8.2. For the same compound, the “Kynurenine concentration in plasma (average ± standard error of the mean)” value came to 122 ± 3.5 ng/mL in the assay on Kynurenine (10 mg/kg oral), 91.0 ± 4.4 ng/mL in the assay with Kynurenine (30 mg/kg oral) and 64.0 ± 3.8 ng/mL with Kynurenine (100 mg/kg oral). Further, the “inhibition of circulating Kynurenine” value was determined as 39% with Kynurenine (10 mg/kg oral), 55% in the assay on Kynurenine (30 mg/kg oral) and 68% in the assay with Kynurenine (100 mg/kg oral).

Regarding `O=C1CC(c2c[nH]c3ccccc23)C(=O)N1` (stereo not drawn) [Compound 3, 3-(1H-indol-3-yl)pyrrolidine-2,5-dione], the IC50 (in general, the concentration that gives 50% inhibition) on hIDO1 [1] stood at 3000 nM; at hIDO1 [2], 920 nM.

As to `O=C1C[C@H](c2c[nH]c3ccccc23)C(=O)N1` [Compound 4, (−)-(R)-3-(1H-indol-3-yl)pyrrolidine-2,5-dione], the IC50 was 1800 nM at hIDO1 [1] and 240 nM on hIDO1 [2].

Regarding `O=C1C[C@@H](c2c[nH]c3ccccc23)C(=O)N1` [Compound 4a, (+)-(S)-3-(1H-indol-3-yl)pyrrolidine-2,5-dione], the IC50 was above 50000 nM on hIDO1 [1] and 3300 nM against hIDO1 [2].

As for `O=C1CC(c2c[nH]c3ccc(Cl)cc23)C(=O)N1` (stereo not drawn) [Compound 5, 3-(5-chloro-1H-indol-3-yl)pyrrolidine-2,5-dione], the IC50 is 2100 nM at hIDO1 [1] and 590 nM at hIDO1 [2].

As for `O=C1C[C@H](c2c[nH]c3ccc(Cl)cc23)C(=O)N1` [Compound 6, (−)-(R)-3-(5-chloro-1H-indol-3-yl)pyrrolidine-2,5-dione], the 50% inhibitory concentration (IC50) worked out at 2200 nM on hIDO1 [1] and 3400 nM at hIDO1 [3].

Take `O=C1C[C@@H](c2c[nH]c3ccc(Cl)cc23)C(=O)N1` [Compound 6a, (+)-(S)-3-(5-chloro-1H-indol-3-yl)pyrrolidine-2,5-dione]: the concentration for half-maximal inhibition (IC50) at hIDO1 [1] was above 50000 nM.

`O=C1CC(c2c[nH]c3cc(Cl)c(F)cc23)C(=O)N1` (stereo not drawn) [Compound 7, 3-(6-chloro-5-fluoro-1H-indol-3-yl)pyrrolidine-2,5-dione]: on hIDO1 [1], the IC50 turned out to be 490 nM.

Compound `O=C1C[C@H](c2c[nH]c3cc(Cl)c(F)cc23)C(=O)N1` [Compound 8, (R)-3-(6-chloro-5-fluoro-1H-indol-3-yl)pyrrolidine-2,5-dione] returned an IC50 at hIDO1 [3] of 3600 nM.

For `O=C1CC(c2c[nH]c3cc(Br)c(F)cc23)C(=O)N1` (stereo not drawn) [Compound 9, 3-(6-bromo-5-fluoro-1H-indol-3-yl)pyrrolidine-2,5-dione], the IC50 came to 290 nM on hIDO1 [1] and 7000 nM on hIDO1 [3].

For the compound `O=C1C[C@H](c2c[nH]c3cc(Br)c(F)cc23)C(=O)N1` [Compound 10, (R)-3-(6-bromo-5-fluoro-1H-indol-3-yl)pyrrolidine-2,5-dione], at hIDO1 [1], the IC50 worked out at 620 nM.

Consider `O=C1C[C@@H](c2c[nH]c3cc(Br)c(F)cc23)C(=O)N1` [Compound 10a, (S)-3-(6-bromo-5-fluoro-1H-indol-3-yl)pyrrolidine-2,5-dione], for which the IC50 at hIDO1 [1] amounted to 8000 nM.

`O=C1CC(c2c[nH]c3ccc(Br)cc23)C(=O)N1` (stereo not drawn) [Compound 11, 3-(5-bromo-1H-indol-3-yl)pyrrolidine-2,5-dione]: the IC50 came to 370 nM on hIDO1 [1] and 5900 nM against hIDO1 [3].

`Cc1ccc2[nH]cc(C3CC(=O)NC3=O)c2c1` (stereo not drawn) [Compound 12, 3-(5-methyl-1H-indol-3-yl)pyrrolidine-2,5-dione]: at hIDO1 [1], the half-maximal inhibitory concentration (IC50) worked out at 53000 nM.

Take `COc1ccc2[nH]cc(C3CC(=O)NC3=O)c2c1` (stereo not drawn) [Compound 13, 3-(5-methoxy-1H-indol-3-yl)pyrrolidine-2,5-dione]: the IC50 at hIDO1 [1] is 53000 nM.

In the case of `N#Cc1ccc2[nH]cc(C3CC(=O)NC3=O)c2c1` (stereo not drawn) [Compound 14, 3-(2,5-dioxopyrrolidin-3-yl)-1H-indole-5-carbonitrile], the IC50 on hIDO1 [1] came to 12000 nM.

Turning to `O=C1CC(c2c[nH]c3cc(F)c(F)cc23)C(=O)N1` (stereo not drawn) [Compound 15, 3-(5,6-difluoro-1H-indol-3-yl)pyrrolidine-2,5-dione], the half-inhibitory concentration (IC50) was 1800 nM at hIDO1 [1] and 260 nM against hIDO1 [2].

For the compound `Cc1cc2[nH]cc(C3CC(=O)NC3=O)c2cc1F` (stereo not drawn) [Compound 16, 3-(5-fluoro-6-methyl-1H-indol-3-yl)pyrrolidine-2,5-dione], the IC50 at hIDO1 [1] was 46000 nM.

With `O=C1CC(c2c[nH]c3cc(F)ccc23)C(=O)N1` (stereo not drawn) [Compound 17, 3-(6-fluoro-1H-indol-3-yl)pyrrolidine-2,5-dione], the IC50 at hIDO1 [1] stood at 3400 nM.

Turning to `O=C1CC(c2c[nH]c3cc(Cl)ccc23)C(=O)N1` (stereo not drawn) [Compound 18, 3-(6-chloro-1H-indol-3-yl)pyrrolidine-2,5-dione], the half-maximal inhibitory concentration (IC50) was 2100 nM on hIDO1 [1] and 500 nM against hIDO1 [2].

As for `O=C1CC(c2c[nH]c3cc(Br)ccc23)C(=O)N1` (stereo not drawn) [Compound 19, 3-(6-bromo-1H-indol-3-yl)pyrrolidine-2,5-dione], at hIDO1 [1], the IC50 amounted to 420 nM.

As for `Cc1ccc2c(C3CC(=O)NC3=O)c[nH]c2c1` (stereo not drawn) [Compound 20, 3-(6-methyl-1H-indol-3-yl)pyrrolidine-2,5-dione], on hIDO1 [1], the IC50 worked out at 54000 nM.

For `N#Cc1ccc2c(C3CC(=O)NC3=O)c[nH]c2c1` (stereo not drawn) [Compound 22, 3-(2,5-dioxopyrrolidin-3-yl)-1H-indole-6-carbonitrile], the IC50 on hIDO1 [1] stood at 1700 nM.

On to `O=C1CC(c2cccc3ccccc23)C(=O)N1` (stereo not drawn) [Compound 23, 3-(naphthalen-1-yl)pyrrolidine-2,5-dione], for which the IC50 on hIDO1 [1] was 18000 nM.

Consider `O=C1CC(c2cccc3cc(F)ccc23)C(=O)N1` (stereo not drawn) [Compound 24, 3-(6-fluoronaphthalen-1-yl)pyrrolidine-2,5-dione], for which the 50% inhibitory concentration (IC50) on hIDO1 [1] was 1700 nM.

Regarding `O=C1CC(c2cccc3ccc(F)cc23)C(=O)N1` (stereo not drawn) [Compound 25, 3-(7-fluoronaphthalen-1-yl)pyrrolidine-2,5-dione], at hIDO1 [1], the IC50 is 4600 nM.

The values above are taken from patent US9603836B2, “Pyrrolidine-2, 5-dione derivatives, pharmaceutical compositions and methods for use as IDO1 inhibitors” (ITEOS THERAPEUTICS, priority 2014, dated 2017).
